Measured values from US20260042772A1, “FURO PYRIMIDINE DERIVATES” (Merck Patent GmbH, priority 2022, published 2026).
Where two headings read alike, the source gives them in different places.

Key:
[1] = biological target: human PI4Kβ (HuPI4Kβ) (Homo sapiens (Human), UniProt Q9UBF8); assay: HuPI4Kβ lipid kinase inhibition, ADP-Glo Kinase Assay; assay type: biochemical; settings: recombinant enzyme
Procedure: To further test the impact of compounds according to the present invention on human PI4Kβ, HuP[…]β inhibition was tested for selected compounds and contrasted with the results for inhibiting PfNF54 strains as described in the example above. The lipid kinase reaction is performed by incubating lipid substrate (PI:3PS or PIP2:3PS) with a recombinant enzyme and ATP, and the kinase activity is measured using the ADP-GloTM Kinase Assay. First, the kinase reaction is terminated, and any ATP remaining after the reaction is depleted, leaving only ADP. Then the Kinase Detection Reagent is added to convert ADP to ATP, which is used in a coupled luciferin/luciferase reaction. The luminescent output is measured and is correlated with kinase activity. The assays can be performed in 96- or 384-well plates and can be used for enzyme characterization, inhibitor screening or compound profiling. Results measuring the effect of compounds on HuP[…]β are reported in table 2 in nM (IC50) describing the concentration necessary to inhibit 50% of the enzyme's activity (HuP[…]β IC50 (nM)).

[2] = system: sensitive (NF54) strains of P. falciparum; assay: In vitro P. falciparum assay, modified [3H]hypoxanthine incorporation assay; assay type: cell-based; settings: Plasmodium falciparum, NF54 strain
Description: Compounds according to the present invention were screened against sensitive (NF54) strains of P. falciparum in vitro using the modified [3H]hypoxanthine incorporation assay. (Vennerstrom, J. L.; Arbe-Barnes, S.; Brun, R.; Charman, S. A.; Chiu, F. C. K.; Chollet, J.; Dong, Y.; Dorn, A.; Hunziker, D.; Matile, H.; McIntosh, K.; Padmanilayam, M.; Tomas, J. S.; Scheurer, C.; Scorneaux, B.; Tang, Y.; Urwyler, H.; Wittlin, S. and Charman, W. N. Identification of an Antimalarial Synthetic Trioxolane Drug Development Candidate. Nature, 2004, 430, 900-904.).
Compound concentrations at which growth of P. falciparum was inhibited by 50% compared to untreated controls was measured in nM (IC50).
Compound concentrations at which growth of P. falciparum was inhibited by 50% compared to untreated controls was measured in nM (IC50) as described above (PfNF54 IC50 (nM)).

[3] = system: CQC sensitive strain (NF54) of P. falciparum; assay: In vitro antiplasmodial activity, Assay B (as described by Vennerstrom et al. 2004); assay type: cell-based; settings: Plasmodium falciparum; NF54, Vennerstrom et al. method
Procedure: Compounds were screened against CQC sensitive strain (NF54) of P. falciparum in vitro as described by Vennerstrom et al. (2004). A full dose-response were performed starting at a concentration of 3000 nM, which is then serially diluted 2-fold in complete medium to give 10 concentrations; with the lowest concentration being approximately 6 nM. The same dilution techniques were used for all samples. References were tested at a starting concentration of 1000 ng/mL. The highest concentration of solvent to which the parasites were exposed has no measurable effect on the parasite viability (data not shown).

[4] = system: P. vivax liver-stage hypnozoites; assay: In vitro P. vivax liver-stage assay in primary human hepatocytes, radical cure mode: hypnozoites; assay type: cell-based; settings: Plasmodium vivax, Hepatocyte, infected primary human hepatocytes, read-out: Pv Hypnozoite IC50
Procedure: (§1) Compound efficacy against P. vivax liver-stage schizonts and hypnozoites is evaluated in infected primary human hepatocytes (PHHs). Compound screening is performed in 384-well plates, in a 12-point dose response, from 50 μM. All compounds are tested in radical cure mode (RCM). PHHs are seeded onto 384-well plates two days prior to P. vivax sporozoite infection. In RCM, compounds are added to the culture for three days, from day 5 post infection, in duplicate wells. Nigericin and a PI4K inhibitor (KDU691) are used as positive controls in each assay, while solvent (DMSO) without added compound serves as a negative control. Daily medium changes are performed, and the culture is fixed on day twelve post infection to ensure complete parasite clearance. Fixed cells are permeabilized and stained with an anti-UIS4 primary antibody and a fluorescent secondary antibody. Liver-stage schizonts and hypnozoites are then quantified by High Content Imaging. Roth, A., et al. A comprehensive model for assessment of liver stage therapies targeting Plasmodium vivax and Plasmodium falciparum. Nat. Commun. 2018, 9(1), 1837. doi.org/10.1038/s41467-018-04221-9.

[5] = system: P. vivax liver-stage schizonts; assay: In vitro P. vivax liver-stage assay in primary human hepatocytes, radical cure mode: schizonts; assay type: cell-based; settings: Plasmodium vivax, Hepatocyte, infected primary human hepatocytes, read-out: Pv Schizont IC50
Procedure: as §1

[6] = system: chloroquine sensitive (CQS) strain (NF54) of P. falciparum; assay: In vitro antiplasmodial activity, Assay A (parasite lactate dehydrogenase assay); assay type: cell-based; settings: Plasmodium falciparum
Procedure: Test samples were screened for in vitro antiplasmodial activity against a chloroquine sensitive (CQS) strain (NF54) of the malaria parasite P. falciparum. Continuous in vitro cultures of asexual erythrocyte stages of P. falciparum were maintained using a modified version of the method of Trager and Jensen (1976).1 Quantitative assessment of antiplasmodial activity in vitro was determined via the parasite lactate dehydrogenase assay using a modified method described by Makler (1993). The test samples were tested in triplicate on two separate occasions. Further dilutions were prepared in complete medium on the day of the experiment. Samples were tested as a suspension if not completely dissolved. Chloroquine and artesunate were used as the reference drugs. A full dose-response were performed starting at a concentration of 3000 nM, which is then serially diluted 2-fold in complete medium to give 10 concentrations; with the lowest concentration being approximately 6 nM. The same dilution techniques were used for all samples. References were tested at a starting concentration of 1000 ng/mL. The highest concentration of solvent to which the parasites were exposed has no measurable effect on the parasite viability (data not shown).

[7] = growth inhibition, Table 2, read-out: PfNF54 IC50
[8] = [3H]hypoxanthine incorporation, read-out: In vitro P. falciparum growth inhibition IC50

human PI4Kβ (HuPI4Kβ), sequence (Q9UBF8 whole entry): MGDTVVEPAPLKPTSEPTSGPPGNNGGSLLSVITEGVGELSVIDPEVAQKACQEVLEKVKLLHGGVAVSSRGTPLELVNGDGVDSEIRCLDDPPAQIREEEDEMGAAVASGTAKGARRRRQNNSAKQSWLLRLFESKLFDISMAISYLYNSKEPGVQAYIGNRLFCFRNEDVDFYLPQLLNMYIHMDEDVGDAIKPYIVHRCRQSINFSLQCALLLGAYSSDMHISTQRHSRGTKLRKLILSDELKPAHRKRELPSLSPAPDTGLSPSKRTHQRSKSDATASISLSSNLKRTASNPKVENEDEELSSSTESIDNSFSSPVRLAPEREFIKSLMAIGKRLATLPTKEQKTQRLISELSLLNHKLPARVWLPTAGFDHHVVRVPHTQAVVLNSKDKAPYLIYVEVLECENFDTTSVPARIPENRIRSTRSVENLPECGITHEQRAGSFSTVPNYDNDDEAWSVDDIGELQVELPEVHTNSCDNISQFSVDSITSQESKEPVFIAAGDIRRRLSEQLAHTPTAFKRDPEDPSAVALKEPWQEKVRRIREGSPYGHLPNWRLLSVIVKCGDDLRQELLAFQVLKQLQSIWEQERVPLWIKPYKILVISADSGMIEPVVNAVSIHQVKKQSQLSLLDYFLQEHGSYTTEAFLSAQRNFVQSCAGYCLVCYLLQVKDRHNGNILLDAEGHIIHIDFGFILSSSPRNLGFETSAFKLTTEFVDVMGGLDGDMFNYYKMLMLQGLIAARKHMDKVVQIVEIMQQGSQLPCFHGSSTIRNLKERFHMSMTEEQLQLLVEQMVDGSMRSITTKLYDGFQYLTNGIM

Row | SMILES | IC50 [1] [nM] | IC50 [3] [nM] | IC50 [6] [nM] | IC50 [2, 7] [nM] | IC50 [4] [nM] | IC50 [2, 8] [nM] | IC50 [5] [nM]
1 | CC(C)(O)c1cc(-c2ncnc3cc(-c4ccc(C(=O)N5CCOCC5)cc4)oc23)ccn1 [Compound C74, (4-{4-[2-(1-Hydroxy-1-methyl-ethyl)-pyridin-4-yl]-furo[3,2-d]pyrimidin-6-yl}-phenyl)-morpholin-4-yl-methanone] | > 500 | – | – | 10 to 50 | – | – | –
2 | C[C@@H]1COCCN1C(=O)c1ccc(-c2cc3ncnc(-c4ccnc(C(C)(C)O)c4)c3o2)cc1 [Compound C75, (4-{4-[2-(1-Hydroxy-1-methyl-ethyl)-pyridin-4-yl]-furo[3,2-d]pyrimidin-6-yl}-phenyl)-((R)-3-methyl-morpholin-4-yl)-methanone] | > 500 | – | – | < 10 | – | – | –
3 | C[C@@H]1CN(C(=O)c2ccc(-c3cc4ncnc(-c5ccnc(C(C)(C)O)c5)c4o3)cc2)C[C@H](C)O1 [Compound C76, 2-[4-(6-{4-[(2R,6S)-2,6-dimethylmorpholine-4-carbonyl]phenyl}furo[3,2-d]pyrimidin-4-yl)pyridin-2-yl]propan-2-ol] | > 500 | – | – | < 10 | – | – | –
4 | CN1CCN(C(=O)c2ccc(-c3cc4ncnc(-c5ccnc(C(C)(C)O)c5)c4o3)cc2)CC1 [Compound C77, 2-(4-{6-[4-(4-methylpiperazine-1-carbonyl)phenyl]furo[3,2-d]pyrimidin-4-yl}pyridin-2-yl)propan-2-ol] | > 500 | – | – | 10 to 50 | – | – | –
5 | CC(C)(O)c1cc(-c2ncnc3cc(-c4ccc(S(C)(=O)=O)cc4)oc23)cc(F)n1 [Compound D150, 2-(6-fluoro-4-(6-(4-(methylsulfonyl)phenyl)furo [3,2-d]pyrimidin-4-yl)pyridin-2-yl)propan-2-ol] | – | 15 to 50 | > 50 | – | – | 10 to 50 | –
6 | CC(C)(O)c1cccc(-c2ncnc3cc(-c4ccc(C(=O)N5CCOCC5)cc4)oc23)c1F [Compound D183, (4-(4-(2-fluoro-3-(2-hydroxypropan-2-yl)phenyl)furo[3,2-d]pyrimidin-6-yl)phenyl)(morpholino) methanone] | 100 to 500 | < 15 | < 15 | < 10 | < 15 | < 10 | < 15
7 | CC(C)(O)c1cccc(-c2ncnc3cc(-c4ccc(C(=O)N5C[C@@H]6C[C@H]5CO6)cc4)oc23)c1F [Compound D197, ((1S,4S)-2-oxa-5-azabicyclo[2.2.1]heptan-5-yl)(4-(4-(2-fluoro-3-(2-hydroxypropan-2-yl)phenyl)furo[3,2-d]pyrimidin-6-yl)phenyl)methanone] | 100 to 500 | < 15 | < 15 | < 10 | – | < 10 | –
8 | CC(C)(O)c1cccc(-c2ncnc3cc(-c4ccc(S5(=O)=NCCCC5)cc4)oc23)c1F (centres unmarked) [Compound D211, 1-(4-(4-(2-fluoro-3-(2-hydroxypropan-2-yl)phenyl)furo[3,2-d]pyrimidin-6-yl)phenyl)-3,4,5,6-tetrahydro-1,2-thiazine 1-oxide] | – | – | – | – | – | < 10 | –
9 | CC(C)(O)c1cc(-c2ncnc3cc(-c4ccc(S(C)(=O)=O)cc4)oc23)ccn1 [Compound D213, 2-(4-(6-(4-(methylsulfonyl)phenyl)furo [3,2-d]pyrimidin-4-yl)pyridin-2-yl)propan-2-ol] | – | – | – | – | > 50 | 10 to 50 | < 15

Now from value to compound, other results behind:

Row | IC50 [1] [nM] | IC50 [3] [nM] | IC50 [6] [nM] | SMILES | IC50 [2, 7] [nM] | IC50 [4] [nM] | IC50 [2, 8] [nM] | IC50 [5] [nM]
10 | 100 to 500 | < 15 | < 15 | CC(C)(O)c1cccc(-c2ncnc3cc(-c4ccc(S(C)(=O)=O)cc4)oc23)c1F [Compound D149, 2-(2-fluoro-3-(6-(4-(methylsulfonyl)phenyl)furo [3,2-d]pyrimidin-4-yl)phenyl)propan-2-ol] | < 10 | < 15 | < 10 | < 15
11 | – | 15 to 50 | 15 to 50 | CC(C)(O)c1cccc(-c2ncnc3cc(-c4ccc(C(=O)O)cc4)oc23)c1F [Compound D201, 4-(4-(2-fluoro-3-(2-hydroxypropan-2-yl)phenyl)furo[3,2-d]pyrimidin-6-yl)benzoic acid] | – | 15 to 50 | – | < 15
12 | – | < 15 | < 15 | CC(C)(O)c1cccc(-c2ncnc3cc(-c4ccc(S(C)(=N)=O)cc4)oc23)c1F (centres unmarked) [Compound D203, (4-(4-(2-fluoro-3-(2-hydroxypropan-2-yl)phenyl)furo[3,2-d]pyrimidin-6-yl)phenyl)(imino)(methyl)-λ6-sulfanone] | – | 15 to 50 | < 10 | < 15
13 | – | < 15 | – | CN1CCN(C(=O)c2ccc(-c3cc4ncnc(-c5cccc(C(C)(C)O)c5F)c4o3)cc2)CC1 [Compound D204, (4-(4-(2-fluoro-3-(2-hydroxypropan-2-yl)phenyl)furo[3,2-d]pyrimidin-6-yl)phenyl)(4-methylpiperazin-1-yl)methanone] | – | – | < 10 | –
14 | – | – | < 15 | CC(C)(O)c1cccc(-c2ncnc3cc(-c4ccc([S@@](C)(=N)=O)cc4)oc23)c1F [Compound D209, (S)-(4-(4-(2-fluoro-3-(2-hydroxypropan-2-yl)phenyl)furo[3,2-d]pyrimidin-6-yl)phenyl)(imino)(methyl)-λ^6-sulfanone] | – | – | < 10 | –
15 | – | – | < 15 | CC(C)(O)c1cccc(-c2ncnc3cc(-c4ccc([S@](C)(=N)=O)cc4)oc23)c1F [Compound D210, (R)-(4-(4-(2-fluoro-3-(2-hydroxypropan-2-yl)phenyl)furo[3,2-d]pyrimidin-6-yl)phenyl)(imino)(methyl)-λ^6-sulfanone] | – | – | < 10 | –
16 | – | – | < 15 | CC(C)(O)c1cccc(-c2ncnc3cc(-c4ccc(S5(=O)=NCCC5)cc4)oc23)c1F (centres unmarked) [Compound D212, 1-(4-(4-(2-fluoro-3-(2-hydroxypropan-2-yl)phenyl)furo[3,2-d]pyrimidin-6-yl)phenyl)-4,5-dihydro-3H-isothiazole 1-oxide] | – | – | < 10 | –
17 | – | < 15 | < 15 | CC(C)(O)c1nccc(-c2ncnc3cc(-c4ccc(S(C)(=O)=O)cc4)oc23)c1F [Compound P31, 2-(3-fluoro-4-(6-(4-(methylsulfonyl)phenyl)furo [3,2-d]pyrimidin-4-yl)pyridin-2-yl)propan-2-ol] | – | – | – | –
